Data reported in ChEMBL document CHEMBL1142160, “Overexpression and initial characterization of the chromosomal aminoglycoside 3'-O-phosphotransferase APH(3')-IIb from Pseudomonas aeruginosa” (2007).

What was measured:
Assay type in all cases: functional
Escherichia coli [1] = assay: Antibacterial activity against Escherichia coli BL21(DE3)
Pseudomonas aeruginosa = assay: Antibacterial activity against Pseudomonas aeruginosa ATCC 27853
Escherichia coli [2] = assay: Antibacterial activity against Escherichia coli BL21(DE3) expressing Pseudomonas aeruginosa APH(3')-2b

GENTAMICIN
MIC (Escherichia coli [1]): 6 µg/mL
MIC (Pseudomonas aeruginosa): 2 µg/mL
MIC (Escherichia coli [2]): 6 µg/mL
